Laboratory results as given in publication PMC7792806, “Development of Second Generation Activity-Based Chemical Probes for Sirtuins” (Molecules, 2020).

What was measured:
[1] = molecular target: SIRT6H133Y (Homo sapiens, UniProt Q8N6T7, H133Y); experiment: Labeling of catalytically inactive mutant SIRT6H133Y; type: biochemical
Method: (§1) Remarkably, probe 2C was also able to label individual sirtuin isoforms in cell lysates. HEK293 cells overexpressing human SIRT2 were lysed, and the lysate was subjected to the labeling by 10 μM probe 2C.
A typical labeling experiment was performed as follows: in a 0.7 mL Eppendorf tube, purified recombinant human sirtuin (10 μM) was incubated with NAD^+ (500 μM) and activity-based probe at 37 °C for 10 min. The sample was transferred to a clear-bottom 96-well plate, placed on ice, and irradiated at 365 nm with a UV-lamp in a cold room. Subsequently, ingredients of the “click-chemistry” including azide-fluor 545, CuSO4, reducing agent (tris(2-carboxyethyl)phosphine, TCEP) and stabilizing agent (tris[(1-benzyl-1H-1,2,3-triazol-4-yl)methyl]amine, TBTA) were added, and the sample was gently agitated at 250 rpm on a microshaker at room temperature for 30 min. Then, the sample was resolved by SDS-PAGE. To […] the signal to noise ratio, the gel was destained to eliminate non-specific binding of free dyes. This was done in a mixture of methanol/distilled water/acetic acid (v/v/v = 4/5/1) at ambient temperature for 4 h. Then, destained gel was analyzed with in-gel fluorescence scanning using a Biorad ChemiDoc MP imager (excitation 532 nm, 580 nm cut-off filter and 30 nm band-pass). Finally, Coomassie blue staining was applied to provide loading control.

[2] = molecular target: SIRT6 (Homo sapiens, UniProt Q8N6T7); experiment: Western blot of H3K9Ac in HEK293 cells; type: cell-based
Sequence of SIRT6 (Q8N6T7 whole entry): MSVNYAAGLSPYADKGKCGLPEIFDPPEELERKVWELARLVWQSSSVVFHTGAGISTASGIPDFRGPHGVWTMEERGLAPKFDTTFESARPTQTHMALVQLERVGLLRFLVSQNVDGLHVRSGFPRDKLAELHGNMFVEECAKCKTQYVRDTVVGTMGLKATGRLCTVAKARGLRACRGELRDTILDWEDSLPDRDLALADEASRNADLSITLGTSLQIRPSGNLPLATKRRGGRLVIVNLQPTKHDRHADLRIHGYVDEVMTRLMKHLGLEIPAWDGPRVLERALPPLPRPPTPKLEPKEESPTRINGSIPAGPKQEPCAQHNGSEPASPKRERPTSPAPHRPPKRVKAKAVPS
Source text: The ABPs structurally mimic acylated lysine substrates. However, the presence of substituents could potentially alter their cell permeability, cellular distribution, and target engagement ability. It is essential to determine if these probes are cell permeable and capable of inhibiting endogenous sirtuin activity. The sirtuin family of proteins are often referred to as the class III histone deacetylases (HDACs). Unlike class I and class II HDACs, which are Zn^2+-dependent, sirtuins are NAD^+-dependent. […] Similarly, other sirtuins may not be the only deacetylase of their endogenous substrates. Therefore, the inhibitory effect of the other ABPs may only become apparent when class I/II HADCs are inhibited at the same time. HEK293 cells were cultured in the presence of probe 2C and/or other HDAC inhibitors. Subsequently, the cell lysates were collected and probed for acetylated H3K9 (H3K9Ac), which is an endogenous substrate of SIRT6.
The cell lysate was resolved on a 10% SDS-PAGE gel and transferred to Immobilon PVDF transfer membrane (Millipore, Burlington, MA, USA). The blot was blocked with 5% nonfat milk, probed with primary antibody targeting H3K9Ac (Sigma-Aldrich, St. Louis, MO, USA), H3 (Abcam, Cambridge, MA, USA), acetyllysine or CPS1 (Cell Signaling Technology, Beverly, MA, USA), washed with PBST, followed by incubation with anti-rabbit or anti-mouse HRP conjugated secondary antibody. Then, the signal was detected by SuperSignal West Pico Chemiluminescent substrate (Thermo Fisher Scientific, Rockford, IL, USA).

[3] = molecular target: T1, SIRT2 (Homo sapiens, UniProt Q8IXJ6); experiment: Cell lysate labeling, SIRT2-overexpressing HEK293; type: biochemical; conditions: 10 μM probe
T1 construct: expressed in transfected cells; host or cells: HEK293
T1 sequence (Q8IXJ6 1-389): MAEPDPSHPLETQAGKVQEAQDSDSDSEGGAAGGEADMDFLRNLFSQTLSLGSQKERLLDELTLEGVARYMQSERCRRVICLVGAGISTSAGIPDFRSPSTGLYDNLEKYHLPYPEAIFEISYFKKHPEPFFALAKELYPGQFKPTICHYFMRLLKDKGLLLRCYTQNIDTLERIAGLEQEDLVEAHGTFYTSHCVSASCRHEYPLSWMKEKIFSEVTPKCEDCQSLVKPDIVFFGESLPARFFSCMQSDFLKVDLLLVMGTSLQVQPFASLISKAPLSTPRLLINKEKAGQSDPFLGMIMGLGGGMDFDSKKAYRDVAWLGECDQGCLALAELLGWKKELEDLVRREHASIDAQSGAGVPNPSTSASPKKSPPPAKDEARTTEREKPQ
Method: as §1
Cells were harvested and lysed with RIPA buffer (Thermo Fisher Scientific, Rockford, IL, USA) supplemented with protease inhibitor cocktail (Thermo Fisher Scientific, Rockford, IL, USA). Protein concentration was determined by Bradford assay. A typical labeling experiment contained 4 to 24 μg of protein, 500 μM NAD^+, and 10 μM probe in 100 mM phosphate buffer pH 7.5. The photoaffinity labeling, “click” conjugation to fluorescent dye and visualization were similar to the protocols for labeling recombinant sirtuins as described above.

Sequence of SIRT6H133Y (Q8N6T7 whole entry H133Y, canonical isoform): as the sequence (Q8N6T7 whole entry) above, with H133Y counted along it

labeling of SIRT6H133Y [1]: failed to label | H3K9Ac level, combination with TSA ([2]; combined with TSA): significantly elevated level of H3K9Ac | H3K9Ac level, treatment alone ([2]; single agent): did not cause any appreciable changes | amount of cell lysate in which labeling was still observed [3]: 4 µg | labeling of SIRT2 in cell lysate ([3]; lysate of HEK293 cells overexpressing human SIRT2): clean and selective labeling of SIRT2
SMILES: C#CCCCC1(CCC(=O)N[C@@H](CCCCNC(=S)CCCCCCCCCCCCC)C(=O)N[C@@H](C)C(=O)N[C@@H](C)C(=O)OC)N=N1 [Probe 2C]
